Data published in patent US20160120889A1, “LIFESPAN EXTENDING AGENT” (priority 2011, published 2016).

How the values were obtained:
[1] = test system: wild-type N2 strain of the nematode Caenorhabditis elegans; assay: Nematode survival rate and average lifespan, wild-type N2; format: in vivo
Procedure: The wild-type N2 strain of the nematode Caenorhabditis elegans was used.
(§1) Complete S liquid medium (Sulston, J. E. and Brenner, S. (1974) Genetics 77, 95-104) was used for the culturing of the nematode. D-psicose or D-allose was added to the medium in 0.25% (14 mM) and 0.5% (28 mM). The Escherichia coli (E. coli) OP50 strain was added in 30 mg (wet weight/mL) to feed the worms. To exclude the effects of the germ cells on lifespan, the cell division inhibitor 2′-deoxy-5-fluorouridine (40 μM) was added.
(§2) Young worms, 4 days of age, were used for the measurements of survival rate and average lifespan. The prepared liquid medium was dispensed onto ten plastic petri dishes having a diameter of 3.5 cm (2 mL each). Ten nematodes were transferred to each petri dish (a total of 100 individuals), and cultured at 20° C. The samples were inoculated into a new medium every day until day 3, and every 2 to 3 days thereafter. Observations were made at the time of the inoculation, and the number of survived individuals was recorded.
The wild-type N2 strain of the nematode Caenorhabditis elegans was cultured, and lifespan was measured in the same manner as in Example 1, except that the D-psicose was used in 0.5% (w/v). […] The average lifespan with 0.5% D-psicose was 27 days, longer than the 23-day lifespan of the D-psicose-free control.

catalase activity in N2 = assay: Catalase activity in lysate of N2; format: in vivo, Caenorhabditis elegans; settings: N2, 0.5% (w/v), day 7, FIG. 8
Procedure: (§3) The wild-type N2 and the oxygen sensitive mutant mev-1 of the nematode Caenorhabditis elegans were cultured in liquid medium (10 mL) containing 0.5% (w/v) D-psicose. The medium was dispensed onto plastic petri dishes having a diameter of 10 cm, and approximately 1,000 nematodes were placed in each petri dish. The nematodes were cultured in the same manner as in Example 1 except for these differences, and the samples were collected on day 6 from the start of the culturing. FIG. 5 represents the results of the comparison of SOD mRNA gene expression levels. For comparison, the RNA gene levels of mitochondria Mn-SOD and cytosol Cu/Zn-SOD were measured.
The wild-type N2 of the nematode Caenorhabditis elegans was grown in the same manner as in Example 4. The samples were collected on day 7 from the start of the culturing, and the catalase activity in the lysate was measured.

SOD activity in N2 = assay: SOD activity in lysate of N2; format: in vivo, Caenorhabditis elegans; settings: N2, 0.5% (w/v)
Procedure: as §3
(§4) The wild-type N2 and the oxygen sensitive mutant mev-1 of the nematode Caenorhabditis elegans were grown in the same manner as in Example 4. The samples were collected on day 7 from the start of the culturing, and the SOD activity in the lysate was measured.

[2] = test system: catalase genes ctl-1, ctl-2 in N2; assay: Catalase mRNA gene expression in N2; format: in vivo, Caenorhabditis elegans; settings: N2, 0.5% (w/v), day 6
Procedure: as §3
The wild-type N2 and the oxygen sensitive mutant mev-1 of the nematode Caenorhabditis elegans were cultured in the same manner as in Example 4. The samples were collected on day 6 from the start of the culturing, and the catalase mRNA gene expression levels were compared. For comparison, the RNA gene levels of cytosol ctl-1 and peroxisome CTL-2 were measured.

[3] = test system: oxygen sensitive mutant mev-1 of the nematode Caenorhabditis elegans; assay: Nematode average lifespan, oxygen sensitive mutant mev-1; format: in vivo; settings: mev-1, 0.25%, Example 3; control 12 days
Procedure: as §1, §2
The oxygen sensitive mutant mev-1 of the nematode Caenorhabditis elegans was cultured, and lifespan was measured in the same manner as in Example 1, except that the D-psicose was used in 0.25%. […] The average lifespan with 0.25% D-psicose was 16 days, longer than the 12-day lifespan of the D-psicose-free control.

SOD activity in mev-1 = assay: SOD activity in lysate of mev-1; format: in vivo, Caenorhabditis elegans; settings: mev-1, 0.5% (w/v)
Procedure: as §3, §4

[4] = test system: SOD gene (Mn-SOD sod-3, Cu/Zn-SOD) in mev-1; assay: SOD mRNA gene expression in mev-1 (real time quantitative RT-PCR); format: in vivo, Caenorhabditis elegans
Procedure: as §3

[5] = test system: SOD gene (mitochondria Mn-SOD, cytosol Cu/Zn-SOD) in N2; assay: SOD mRNA gene expression in N2 (real time quantitative RT-PCR); format: in vivo, Caenorhabditis elegans; settings: N2, 0.5% (w/v), day 6, FIG. 5
Procedure: as §3

O=C[C@H](O)[C@H](O)[C@H](O)[C@H](O)CO [D-allose]
average lifespan ([1]; N2, 0.5% (28 mM) in medium, 20° C., Example 1, control 12.5 days): 15.8 days | increase in average lifespan vs control ([1]; N2, 0.5% in medium, Example 1): 26%

O=C(CO)[C@H](O)[C@H](O)[C@H](O)CO [D-psicose]
catalase activity in the lysate (catalase activity in N2): increased catalase activity | increase in SOD enzyme activity (SOD activity in N2; day 7): 1.5 fold | SOD activity in the lysate (SOD activity in N2; day 7, FIG. 6): increased SOD activity | increase in gene expression levels of cytoplasm-localized catalase and peroxisome catalases (ctl-1, ctl-2) [2]: 1.5 fold | average lifespan [3]: 16 days | increase in SOD enzyme activity (SOD activity in mev-1; day 7): 1.3 fold | SOD activity in the lysate (SOD activity in mev-1; day 7, FIG. 6): increased SOD activity | SOD mRNA gene expression level ([4]; mev-1, 0.5% (w/v), day 6, FIG. 5): increased expression | increase in expression level of Mn-SOD (sod-3) gene ([4]; mev-1, real time quantitative RT-PCR, 0.5% (w/v), day 6): 1.7 fold | SOD mRNA gene expression level [5]: increased expression | average lifespan ([1]; N2, 0.25% (14 mM) in medium, 20° C., Example 1, control 15.8 days): 18.9 days | increase in average lifespan vs control ([1]; N2, 0.25% in medium, Example 1): 20% | lifespan extension ([1]; N2, 0.5% (w/v)): 17% | average lifespan ([1]; N2, 0.5% (w/v), Example 2, control 23 days): 27 days
